Assay results as given in paper PMC9067983, “Identification of highly selective type II kinase inhibitors with chiral peptidomimetic tails” (Journal of Enzyme Inhibition and Medicinal Chemistry, 2022).
Where a SMILES comes first, the peptide text is derived from it. [ ]: non-standard residue; d: D form. The star is where a group is joined. X1 = Cc1ccc(Nc2ncc3c(n2)N(C)C(=O)N(c2cc(C(=O)*)ccc2C)C3)cn1; Aib = CC(C)(N)C(=O)O

What was measured:
Test in all cases: kinase selectivity profiling
Type in all cases: biochemical
Conditions in all cases: 10µM ATP, read-out: % inhibition (relative to DMSO)
EPHA5 = biological target: T1, EPHA5 (Homo sapiens, UniProt P54756)
T1 construct: purchased Reaction Biology Corp
Protocol: (§1) Full panel kinase profiling and kinase IC50 measurement were performed by using Reaction Biology Corp. (San Diego, USA).

TYK1/LTK = biological target: T2, TYK1/LTK (Homo sapiens, UniProt P29376)
T2 construct: purchased Reaction Biology Corp
Protocol: as §1

STK22D/TSSK1 = biological target: T3, STK22D/TSSK1 (Homo sapiens, UniProt Q9BXA7)
T3 construct: purchased Reaction Biology Corp
Protocol: as §1

PDGFRa = biological target: T4, PDGFRa (Homo sapiens, UniProt P16234)
T4 construct: purchased Reaction Biology Corp
Protocol: as §1

PAK3 = biological target: T5, PAK3 (Homo sapiens, UniProt O75914)
T5 construct: purchased Reaction Biology Corp
Protocol: as §1

COT1/MAP3K8 = biological target: T6, COT1/MAP3K8 (Homo sapiens, UniProt P41279)
T6 construct: purchased Reaction Biology Corp
Protocol: as §1

PBK/TOPK = biological target: T7, PBK/TOPK (Homo sapiens, UniProt Q96KB5)
T7 construct: purchased Reaction Biology Corp
Protocol: as §1

RIPK2 = biological target: T8, RIPK2 (Homo sapiens, UniProt O43353)
T8 construct: purchased Reaction Biology Corp
Protocol: as §1

PKCeta = biological target: T9, PKCeta (Homo sapiens, UniProt P24723)
T9 construct: purchased Reaction Biology Corp
Protocol: as §1

Lyn = biological target: T10, Lyn (Homo sapiens, UniProt P07948)
T10 construct: purchased Reaction Biology Corp
Protocol: as §1

MEK2 = biological target: T11, MEK2 (Homo sapiens, UniProt P36507)
T11 construct: purchased Reaction Biology Corp
Protocol: as §1

JAK1 = biological target: T12, JAK1 (Homo sapiens, UniProt P23458)
T12 construct: purchased Reaction Biology Corp
Protocol: as §1

TEC = biological target: T13, TEC (Homo sapiens, UniProt P42680)
T13 construct: purchased Reaction Biology Corp
Protocol: as §1

TYK2 = biological target: T14, TYK2 (Homo sapiens, UniProt P29597)
T14 construct: purchased Reaction Biology Corp
T14 sequence (P29597 whole entry): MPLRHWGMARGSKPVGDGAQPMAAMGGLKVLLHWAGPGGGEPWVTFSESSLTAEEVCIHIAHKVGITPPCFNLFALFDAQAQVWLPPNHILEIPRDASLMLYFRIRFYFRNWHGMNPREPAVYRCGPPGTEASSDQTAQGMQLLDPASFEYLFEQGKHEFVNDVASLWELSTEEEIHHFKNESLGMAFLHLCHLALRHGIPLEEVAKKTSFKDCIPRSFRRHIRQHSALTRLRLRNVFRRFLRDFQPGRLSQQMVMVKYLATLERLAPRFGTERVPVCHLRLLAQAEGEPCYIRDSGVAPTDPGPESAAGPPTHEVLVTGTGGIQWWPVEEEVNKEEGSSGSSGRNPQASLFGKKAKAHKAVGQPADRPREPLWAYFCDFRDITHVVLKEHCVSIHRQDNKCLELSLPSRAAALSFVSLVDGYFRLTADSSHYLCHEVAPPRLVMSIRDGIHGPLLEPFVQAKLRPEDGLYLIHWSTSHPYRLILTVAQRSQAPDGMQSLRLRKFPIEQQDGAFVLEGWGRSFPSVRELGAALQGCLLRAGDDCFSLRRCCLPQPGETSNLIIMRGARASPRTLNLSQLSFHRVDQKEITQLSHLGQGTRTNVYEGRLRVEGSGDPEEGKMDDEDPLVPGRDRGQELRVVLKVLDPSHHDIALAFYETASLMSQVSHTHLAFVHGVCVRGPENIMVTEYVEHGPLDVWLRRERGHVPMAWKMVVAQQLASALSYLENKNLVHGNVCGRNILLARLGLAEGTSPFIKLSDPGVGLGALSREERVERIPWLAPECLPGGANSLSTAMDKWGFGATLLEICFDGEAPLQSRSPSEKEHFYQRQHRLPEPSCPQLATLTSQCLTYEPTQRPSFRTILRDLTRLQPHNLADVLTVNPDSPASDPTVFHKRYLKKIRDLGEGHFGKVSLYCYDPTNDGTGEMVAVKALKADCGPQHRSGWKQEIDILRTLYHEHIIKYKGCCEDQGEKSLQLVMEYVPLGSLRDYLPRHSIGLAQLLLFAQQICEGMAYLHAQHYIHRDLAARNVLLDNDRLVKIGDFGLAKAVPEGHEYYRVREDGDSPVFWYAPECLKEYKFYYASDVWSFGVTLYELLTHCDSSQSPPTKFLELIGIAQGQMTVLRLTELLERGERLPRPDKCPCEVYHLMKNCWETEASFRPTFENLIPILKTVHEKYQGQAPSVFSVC
Protocol: as §1

DYRK2 = biological target: T15, DYRK2 (Homo sapiens, UniProt Q92630)
T15 construct: purchased Reaction Biology Corp
T15 sequence (Q92630 whole entry): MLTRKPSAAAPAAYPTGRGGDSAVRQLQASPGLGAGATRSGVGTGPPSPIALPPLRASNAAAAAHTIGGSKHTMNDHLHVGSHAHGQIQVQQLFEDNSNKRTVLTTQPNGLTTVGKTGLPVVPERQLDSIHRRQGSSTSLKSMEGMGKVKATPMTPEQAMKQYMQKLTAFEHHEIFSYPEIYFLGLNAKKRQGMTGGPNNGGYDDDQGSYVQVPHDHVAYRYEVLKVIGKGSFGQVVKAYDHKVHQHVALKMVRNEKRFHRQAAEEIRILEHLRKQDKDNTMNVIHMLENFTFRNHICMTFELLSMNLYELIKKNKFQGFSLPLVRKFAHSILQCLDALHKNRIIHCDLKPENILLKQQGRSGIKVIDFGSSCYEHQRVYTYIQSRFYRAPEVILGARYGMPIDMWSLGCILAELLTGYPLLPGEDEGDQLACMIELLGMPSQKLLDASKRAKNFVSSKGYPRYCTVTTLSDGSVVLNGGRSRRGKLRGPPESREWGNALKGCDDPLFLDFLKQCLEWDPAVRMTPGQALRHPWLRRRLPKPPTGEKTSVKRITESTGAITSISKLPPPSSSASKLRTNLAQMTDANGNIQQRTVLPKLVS
Protocol: as §1

NIM1 = biological target: T16, NIM1 (Homo sapiens, UniProt Q8IY84)
T16 construct: purchased Reaction Biology Corp
Protocol: as §1

PHKg2 = biological target: T17, PHKg2 (Homo sapiens, UniProt P15735)
T17 construct: purchased Reaction Biology Corp
Protocol: as §1

SGK3/SGKL = biological target: T18, SGK3/SGKL (Homo sapiens, UniProt Q96BR1)
T18 construct: purchased Reaction Biology Corp
Protocol: as §1

GRK3 = biological target: T19, GRK3 (Homo sapiens, UniProt P35626)
T19 construct: purchased Reaction Biology Corp
Protocol: as §1

VRK2 = biological target: T20, VRK2 (Homo sapiens, UniProt Q86Y07)
T20 construct: purchased Reaction Biology Corp
T20 sequence (Q86Y07 whole entry): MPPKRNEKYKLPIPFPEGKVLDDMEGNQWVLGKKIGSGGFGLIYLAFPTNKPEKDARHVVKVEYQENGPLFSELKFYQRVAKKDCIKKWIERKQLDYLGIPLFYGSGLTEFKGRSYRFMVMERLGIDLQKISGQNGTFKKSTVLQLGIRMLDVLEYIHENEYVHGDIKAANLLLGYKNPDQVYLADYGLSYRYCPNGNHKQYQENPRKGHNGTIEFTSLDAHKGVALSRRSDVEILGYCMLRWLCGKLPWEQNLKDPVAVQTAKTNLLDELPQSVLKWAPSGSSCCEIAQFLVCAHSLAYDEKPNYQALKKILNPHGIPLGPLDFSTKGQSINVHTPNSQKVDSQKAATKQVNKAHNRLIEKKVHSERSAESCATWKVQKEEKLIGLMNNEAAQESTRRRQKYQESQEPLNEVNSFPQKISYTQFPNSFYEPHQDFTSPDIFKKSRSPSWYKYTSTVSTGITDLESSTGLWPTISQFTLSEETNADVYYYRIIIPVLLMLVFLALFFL
Protocol: as §1

PKN2/PRK2 = biological target: T21, PKN2/PRK2 (Homo sapiens, UniProt Q16513)
T21 construct: purchased Reaction Biology Corp
Protocol: as §1

TAOK2/TAO1 = biological target: T22, TAOK2/TAO1 (Homo sapiens, UniProt Q9UL54)
T22 construct: purchased Reaction Biology Corp
Protocol: as §1

IKKe/IKBKE = biological target: T23, IKKe/IKBKE (Homo sapiens, UniProt Q14164)
T23 construct: purchased Reaction Biology Corp
Protocol: as §1

OSR1/OXSR1 = biological target: T24, OSR1/OXSR1 (Homo sapiens, UniProt O95747)
T24 construct: purchased Reaction Biology Corp
Protocol: as §1

MLK2/MAP3K10 = biological target: T25, MLK2/MAP3K10 (Homo sapiens, UniProt Q02779)
T25 construct: purchased Reaction Biology Corp
T25 sequence (Q02779 whole entry): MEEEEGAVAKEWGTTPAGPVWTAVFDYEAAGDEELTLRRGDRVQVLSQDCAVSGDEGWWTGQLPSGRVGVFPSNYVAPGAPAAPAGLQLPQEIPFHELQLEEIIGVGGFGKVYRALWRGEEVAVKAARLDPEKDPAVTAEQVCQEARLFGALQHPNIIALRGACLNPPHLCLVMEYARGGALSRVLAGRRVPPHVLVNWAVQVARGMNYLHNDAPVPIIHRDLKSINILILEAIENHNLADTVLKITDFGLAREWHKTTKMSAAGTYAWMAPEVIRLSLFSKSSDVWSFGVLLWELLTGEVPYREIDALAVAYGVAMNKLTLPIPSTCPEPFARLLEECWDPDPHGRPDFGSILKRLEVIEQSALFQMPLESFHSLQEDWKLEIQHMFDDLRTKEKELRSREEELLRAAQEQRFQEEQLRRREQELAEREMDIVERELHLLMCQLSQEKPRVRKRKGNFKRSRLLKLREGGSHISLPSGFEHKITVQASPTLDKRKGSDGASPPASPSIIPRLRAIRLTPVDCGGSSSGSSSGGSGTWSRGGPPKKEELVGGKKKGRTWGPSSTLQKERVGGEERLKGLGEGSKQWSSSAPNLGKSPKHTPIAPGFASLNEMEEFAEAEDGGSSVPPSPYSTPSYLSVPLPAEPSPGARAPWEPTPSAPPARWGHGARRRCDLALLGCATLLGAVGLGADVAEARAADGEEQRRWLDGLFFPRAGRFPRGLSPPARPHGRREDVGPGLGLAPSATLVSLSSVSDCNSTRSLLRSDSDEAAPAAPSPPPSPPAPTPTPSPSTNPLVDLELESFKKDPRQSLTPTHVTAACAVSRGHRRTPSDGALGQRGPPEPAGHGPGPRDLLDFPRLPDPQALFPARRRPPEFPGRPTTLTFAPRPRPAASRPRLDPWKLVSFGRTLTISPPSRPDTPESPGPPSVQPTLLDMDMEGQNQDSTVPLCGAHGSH
Protocol: as §1

HIPK4 = biological target: T26, HIPK4 (Homo sapiens, UniProt Q8NE63)
T26 construct: purchased Reaction Biology Corp
Protocol: as §1

FGFR3 = biological target: T27, FGFR3 (Homo sapiens, UniProt P22607)
T27 construct: purchased Reaction Biology Corp
Protocol: as §1

MRCKb/CDC42BPB = biological target: T28, MRCKb/CDC42BPB (Homo sapiens, UniProt Q9Y5S2)
T28 construct: purchased Reaction Biology Corp
Protocol: as §1

CLK2 = biological target: T29, CLK2 (Homo sapiens, UniProt P49760)
T29 construct: purchased Reaction Biology Corp
Protocol: as §1

AKT1 = biological target: T30, AKT1 (Homo sapiens, UniProt P31749)
T30 construct: purchased Reaction Biology Corp
Protocol: as §1

PAK6 = biological target: T31, PAK6 (Homo sapiens, UniProt Q9NQU5)
T31 construct: purchased Reaction Biology Corp
Protocol: as §1

CK1g2 = biological target: T32, CK1g2 (Homo sapiens, UniProt P78368)
T32 construct: purchased Reaction Biology Corp
Protocol: as §1

RSK2 = biological target: T33, RSK2 (Homo sapiens, UniProt P51812)
T33 construct: purchased Reaction Biology Corp
T33 sequence (P51812 whole entry): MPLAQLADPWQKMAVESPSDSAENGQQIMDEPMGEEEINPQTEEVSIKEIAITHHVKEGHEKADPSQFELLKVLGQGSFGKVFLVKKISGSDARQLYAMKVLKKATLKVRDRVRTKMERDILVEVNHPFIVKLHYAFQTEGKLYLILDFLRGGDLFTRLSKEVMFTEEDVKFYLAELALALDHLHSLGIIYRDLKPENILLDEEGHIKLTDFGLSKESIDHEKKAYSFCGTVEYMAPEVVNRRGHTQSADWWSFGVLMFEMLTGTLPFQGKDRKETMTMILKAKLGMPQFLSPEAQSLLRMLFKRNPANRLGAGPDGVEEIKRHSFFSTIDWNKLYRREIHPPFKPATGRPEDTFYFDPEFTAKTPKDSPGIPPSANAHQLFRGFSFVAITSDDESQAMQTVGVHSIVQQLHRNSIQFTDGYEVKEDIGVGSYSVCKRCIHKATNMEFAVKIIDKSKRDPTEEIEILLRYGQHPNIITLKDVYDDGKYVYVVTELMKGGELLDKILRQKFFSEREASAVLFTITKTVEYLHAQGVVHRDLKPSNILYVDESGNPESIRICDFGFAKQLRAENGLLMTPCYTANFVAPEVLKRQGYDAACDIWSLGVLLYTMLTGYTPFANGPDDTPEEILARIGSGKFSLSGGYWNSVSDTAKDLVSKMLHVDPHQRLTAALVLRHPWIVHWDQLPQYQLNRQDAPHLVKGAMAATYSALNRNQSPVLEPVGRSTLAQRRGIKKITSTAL
Protocol: as §1

PDK1/PDPK1 = biological target: T34, PDK1/PDPK1 (Homo sapiens, UniProt O15530)
T34 construct: purchased Reaction Biology Corp
Protocol: as §1

DYRK1B = biological target: T35, DYRK1B (Homo sapiens, UniProt Q9Y463)
T35 construct: purchased Reaction Biology Corp
Protocol: as §1

RSK3 = biological target: T36, RSK3 (Homo sapiens, UniProt Q15349)
T36 construct: purchased Reaction Biology Corp
Protocol: as §1

CTK/MATK = biological target: T37, CTK/MATK (Homo sapiens, UniProt P42679)
T37 construct: purchased Reaction Biology Corp
Protocol: as §1

MKK7 = biological target: T38, MKK7 (Homo sapiens, UniProt O14733)
T38 construct: purchased Reaction Biology Corp
T38 sequence (O14733 whole entry): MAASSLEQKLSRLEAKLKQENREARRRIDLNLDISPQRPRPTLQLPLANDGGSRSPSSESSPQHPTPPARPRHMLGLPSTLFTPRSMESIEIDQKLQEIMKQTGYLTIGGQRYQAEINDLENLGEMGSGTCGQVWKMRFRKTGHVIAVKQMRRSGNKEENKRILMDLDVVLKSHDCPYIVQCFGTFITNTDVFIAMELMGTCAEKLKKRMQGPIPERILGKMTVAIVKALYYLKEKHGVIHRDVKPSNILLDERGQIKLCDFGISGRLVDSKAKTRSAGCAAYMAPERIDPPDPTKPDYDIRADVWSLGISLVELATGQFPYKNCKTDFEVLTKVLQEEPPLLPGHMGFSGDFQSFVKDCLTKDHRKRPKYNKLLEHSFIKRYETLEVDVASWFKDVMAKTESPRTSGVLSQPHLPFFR
Protocol: as §1

CDC7/DBF4 = biological target: T39, CDC7/DBF4 (Homo sapiens, UniProt O00311)
T39 construct: purchased Reaction Biology Corp
Protocol: as §1

CDK16/cyclin Y (PCTAIRE) = biological target: T40, CDK16/cyclin Y (PCTAIRE) (Homo sapiens, UniProt Q00536)
T40 construct: purchased Reaction Biology Corp
Protocol: as §1

PAK4 = biological target: T41, PAK4 (Homo sapiens, UniProt O96013)
T41 construct: purchased Reaction Biology Corp
T41 sequence (O96013 whole entry): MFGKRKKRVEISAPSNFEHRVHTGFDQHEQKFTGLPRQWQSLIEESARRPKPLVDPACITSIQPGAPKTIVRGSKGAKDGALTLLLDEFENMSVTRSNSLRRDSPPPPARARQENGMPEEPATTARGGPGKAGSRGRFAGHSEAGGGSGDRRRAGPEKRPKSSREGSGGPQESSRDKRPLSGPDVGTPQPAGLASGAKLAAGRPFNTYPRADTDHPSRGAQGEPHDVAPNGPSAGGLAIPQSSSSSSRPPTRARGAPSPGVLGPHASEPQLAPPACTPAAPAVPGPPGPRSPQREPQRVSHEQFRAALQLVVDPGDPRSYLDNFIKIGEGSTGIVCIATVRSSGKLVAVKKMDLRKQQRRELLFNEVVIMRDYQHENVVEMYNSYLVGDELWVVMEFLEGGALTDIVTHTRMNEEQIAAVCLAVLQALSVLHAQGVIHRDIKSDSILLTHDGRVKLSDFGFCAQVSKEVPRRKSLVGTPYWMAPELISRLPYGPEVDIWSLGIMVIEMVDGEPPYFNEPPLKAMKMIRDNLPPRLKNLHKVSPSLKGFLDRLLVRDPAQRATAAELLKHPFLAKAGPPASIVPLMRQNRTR
Protocol: as §1

BRSK1 = biological target: T42, BRSK1 (Homo sapiens, UniProt Q8TDC3)
T42 construct: purchased Reaction Biology Corp
Protocol: as §1

Cc1ccc(Nc2ncc3c(n2)N(C)C(=O)N(c2cc(C(=O)N[C@H](C(=O)N4CCC[C@H]4C(=O)NC(C)(C)C(=O)N[C@@H](CC(C)C)C(=O)N(C)C)C(C)C)ccc2C)C3)cn1 [7a, (S)-N-(1-(((S)-1-(dimethylamino)-4-methyl-1-oxopentan-2-yl)amino)-2-methyl-1-oxopropan-2-yl)-1-((4-methyl-3-(1-methyl-7-((6-methylpyridin-3-yl)amino)-2-oxo-1,4-dihydropyrimido[4,5-d]pyrimidin-3(2H)-yl)benzoyl)-L-valyl)pyrrolidine-2-carboxamide] (X1-VP[Aib]L-NMe2)
inhibition at 1 µM (EPHA5): 23%
inhibition at 1 µM (TYK1/LTK): 0%
inhibition at 1 µM (STK22D/TSSK1): 6%
inhibition at 1 µM (PDGFRa): 31%
inhibition at 1 µM (PAK3): 0%
inhibition at 1 µM (COT1/MAP3K8): 1%
inhibition at 1 µM (PBK/TOPK): 0%
inhibition at 1 µM (RIPK2): 1%
inhibition at 1 µM (PKCeta): 27%
inhibition at 1 µM (Lyn): 73%
inhibition at 1 µM (MEK2): 11%
inhibition at 1 µM (JAK1): 9%
inhibition at 1 µM (TEC): 2%
inhibition at 1 µM (TYK2): 1%
inhibition at 1 µM (DYRK2): 8%
inhibition at 1 µM (NIM1): 4%
inhibition at 1 µM (PHKg2): 0%
inhibition at 1 µM (SGK3/SGKL): 6%
inhibition at 1 µM (GRK3): 0%
inhibition at 1 µM (VRK2): 0%
inhibition at 1 µM (PKN2/PRK2): 0%
inhibition at 1 µM (TAOK2/TAO1): 4%
inhibition at 1 µM (IKKe/IKBKE): 3%
inhibition at 1 µM (OSR1/OXSR1): 6%
inhibition at 1 µM (MLK2/MAP3K10): 16%
inhibition at 1 µM (HIPK4): 1%
inhibition at 1 µM (FGFR3): 0%
inhibition at 1 µM (MRCKb/CDC42BPB): 0%
inhibition at 1 µM (CLK2): 0%
inhibition at 1 µM (AKT1): 8%
inhibition at 1 µM (PAK6): 0%
inhibition at 1 µM (CK1g2): 2%
inhibition at 1 µM (RSK2): 0%
inhibition at 1 µM (PDK1/PDPK1): 1%
inhibition at 1 µM (DYRK1B): 11%
inhibition at 1 µM (RSK3): 0%
inhibition at 1 µM (CTK/MATK): 10%
inhibition at 1 µM (MKK7): 2%
inhibition at 1 µM (CDC7/DBF4): 0%
inhibition at 1 µM (CDK16/cyclin Y (PCTAIRE)): 6%
inhibition at 1 µM (PAK4): 0%
inhibition at 1 µM (BRSK1): 2%
